Test results reported in doi:10.1101/2024.12.09.627393 (bioRxiv, 2024).

Test system: CECR2-BRD
Assay: 2D 15N-HSQC NMR chemical shift perturbation titration
Format: binding, human
Conditions: 15N-labeled CECR2-BRD, 25°C; 3% DMSO, or NVS-CECR2–1 including 3% DMSO
Description: CECR2-BRD was expressed and purified for NMR experiments following previously established methods, [18]. Briefly, uniformly labeled ^15N CECR2-BRD samples in buffer containing 20 mM Tris-HCl pH 6.8, 150 mM NaCl, 1 mM TCEP, and 10% D2O were purified at 0.30 mM for chemical-shift perturbation experiments.
All two-dimensional (2D) ^15N-HSQC (heteronuclear single quantum […]) experiments were acquired at 25°C using a 600 MHz Bruker AVANCE III spectrometer equipped with a z-gradient 1.7 mm TCI probe at the National Magnetic Resonance Facility at Madison (NMRFAM). The experimental setup for all 2D experiments was kept similar to our previous studies, [18]. […] Chemical Shift Perturbations (CSP) from the final titration point were calculated and normalized as described by Williamson[21], using the equation: Δδ=√ΔδH^2+α⋅ΔδN^2 Where α=0.2 for glycine, and 0.14 for all other residues. ΔδH and ΔδN represent chemical shifts in ppm for hydrogen and nitrogen atoms, respectively. […] These were calculated using the standard deviation (Δ ppm/ Standard deviation ppm, where standard deviation was calculated for each histone ligand) of the Euclidean chemical change of the residues as described previously, [18].

| SMILES | Chemical shift perturbations of CECR2-BRD residues (in words) |
| --- | --- |
| C[S+](C)[O-] [DMSO] | significant (> 1 Δppm) shifts in residues within the ZA loop and BC loop region |
| CCCS(=O)(=O)c1nc(NC2CC2)cc(-c2ccc3c(ccn3C3CC(C)(C)NC(C)(C)C3)c2)n1 [NVS-CECR2–1] | CSPs in some residues within αA, αB and αC helices |
